Reference: ChEMBL document CHEMBL1158152, “(D)-2-tert-Butoxycarbonylamino-5,5-difluoro-5-phenyl-pentanoic acid: synthesis and incorporation into the growth hormone secretagogues” (Bioorg Med Chem Lett, 2008)

What was measured:
[1] = Volume of distribution at steady state in rat at 5 umole/kg, iv; assay type: ADME, organism-based; settings: in vivo, read-out: Vdss
[2] = Oral bioavailability in rat at 15 umole/kg; assay type: ADME, organism-based; settings: in vivo
Rattus norvegicus = assay: Increase in GH level in acute anesthetized rat at 1.74 umol/kg, iv after 15min relative to control; assay type: functional
[3] = Cmax in rat at 15 umole/kg, po; assay type: ADME, organism-based; parameters: route oral; settings: in vivo
[4] = Tmax in rat at 15 umole/kg, po; assay type: ADME, organism-based; settings: in vivo
[5] = AUC in rat at 5 umole/kg, iv; assay type: ADME, organism-based; settings: plasma
[6] = AUC in rat at 15 umole/kg, po; assay type: ADME, organism-based; settings: plasma
[7] = Half life in rat at 5 umole/kg, iv; assay type: ADME, organism-based; settings: in vivo
[8] = Mean residence time in rat at 5 umole/kg, iv; assay type: ADME, organism-based; settings: in vivo
[9] = Clearance in rat at 5 umole/kg, iv; assay type: ADME, organism-based; settings: in vivo
[10] = Clearance in rat at 10 umole/kg, iv; assay type: ADME, organism-based; settings: in vivo
[11] = Volume of distribution at steady state in rat at 10 umole/kg, iv; assay type: ADME, organism-based; settings: in vivo, read-out: Vdss
[12] = Oral bioavailability in rat at 10 umole/kg; assay type: ADME, organism-based; settings: in vivo
[13] = target: Growth hormone secretagogue receptor type 1 (Homo sapiens, UniProt Q92847); assay: Agonist activity at GHS receptor; assay type: functional
[14] = Cmax in rat at 10 umole/kg, po; assay type: ADME, organism-based; parameters: route oral; settings: in vivo
[15] = Tmax in rat at 10 umole/kg, po; assay type: ADME, organism-based; settings: in vivo
[16] = AUC in rat at 10 umole/kg, iv; assay type: ADME, organism-based; settings: plasma
[17] = AUC in rat at 10 umole/kg, po; assay type: ADME, organism-based; settings: plasma
[18] = Half life in rat at 10 umole/kg, iv; assay type: ADME, organism-based; settings: in vivo, read-out: AUC (converted)
[19] = Mean residence time in rat at 10 umole/kg, iv; assay type: ADME, organism-based; settings: in vivo

Growth hormone secretagogue receptor type 1, sequence (Q92847 whole entry): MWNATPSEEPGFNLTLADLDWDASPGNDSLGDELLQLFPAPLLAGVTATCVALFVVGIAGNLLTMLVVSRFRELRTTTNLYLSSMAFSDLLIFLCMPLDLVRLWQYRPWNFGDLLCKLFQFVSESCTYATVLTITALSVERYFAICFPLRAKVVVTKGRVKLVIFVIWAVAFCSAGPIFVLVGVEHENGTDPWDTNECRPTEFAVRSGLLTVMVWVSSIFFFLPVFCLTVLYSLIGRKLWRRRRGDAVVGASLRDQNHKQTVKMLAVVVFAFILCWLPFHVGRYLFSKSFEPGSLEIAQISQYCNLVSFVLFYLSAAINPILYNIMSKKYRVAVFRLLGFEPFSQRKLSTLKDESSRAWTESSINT

Vd [1] [L/kg] | bioavailability [2] [%] | Cmax [3] [nM] | Tmax [4] [h] | AUC [5] [µM·h] | AUC [6] [µM·h] | half-life [7] [h] | MRT [8] [h] | clearance [9] [mL/min/kg] | clearance [10] [mL/min/kg] | Vd [11] [L/kg] | bioavailability [12] [%] | EC50 [13] [nM] | Cmax [14] [nM] | Tmax [15] [h] | AUC [16] [µM·h] | AUC [17] [µM·h] | half-life [18] [h] | MRT [19] [h] | Structure (SMILES) | Activity (Rattus norvegicus) [%]
6.4 | 9.2 | 68 | 0.7 | 0.401 | 0.11 | 0.7 | 0.5 | 213 | – | – | – | – | – | – | – | – | – | – | CC(C)(N)C(=O)N[C@H](COCc1ccccc1)c1nnnn1CCOC(=O)NCCCCO | 750
– | – | – | – | – | – | – | – | – | 183 | 16 | 26 | 0.27 | 166 | 1.6 | 0.901 | 0.239 | 2.4 | 1.4 | CC(C)(N)C(=O)N[C@H](CCC(F)(F)c1ccccc1)c1nnnn1CCOC(=O)NCCCCO | 1934
– | – | – | – | – | – | – | – | – | – | – | – | 0.9 | – | – | – | – | – | – | CC(C)(N)C(=O)N[C@H](CCC(F)(F)c1ccccc1)c1nnnn1CCC#N | –
